# Measured values taken from patent publication US20260085315A1, “POLYNUCLEOTIDE COMPOSITIONS AND METHODS FOR TREATMENT OF CANCER” (APTAH BIO, INC., priority 2023, published 2026).
# d = 2'-deoxy (DNA); m = 2'-O-methyl
# Legend:
# MCF-7 cell line [1] = experiment: Cell cycle assay (propidium iodide, flow cytometry); type: cell-based, Human; conditions: 0.25 and 0.5 μM; 48 hours; only statistically significant alteration
# Method: Cell cycle assays were performed to understand how the ASMO APT20TTMG affects the cell cycle of MCF-7 cell line and its potential mechanisms of action. Initially, cells were plated in 12-well plates at a density of 5×10^4 cells/well and cultured for 24 hours for adhesion and then treated with three different concentrations of APT20TTMG (0.25, 0.5 and 1.0 μM) for 48 hours. After, cells were collected using a solution of trypsin/EDTA and washed with 2.0 mL of PBS buffer followed by centrifugation at 1500 rpm for 5 minutes. Then, the cells were fixed with ice-cold 70% ethanol and incubated overnight at 4° C. After that, cells were washed again with 2.0 mL of PBS and incubated with Propidium Iodide solution (50 μg/mL) and RNAse (200 μg/mL) for 1 hour at room temperature and protected from light. Finally, the cells were analyzed in a flow cytometer (BD FACSCanto II, BD Biosciences), through the acquisition of 10.000 gated events considering each sample.
# [2] = Body weight in xenograft study; type: in vivo, athymic nude mice; conditions: 20 mg/kg i.v. q3d, 3 weeks
# Method: Body weight and tumor size were measured weekly twice using digital caliper. At termination, blood was collected through retro-orbital route. Serum/plasma was separated and stored at deep freezer (−20° C.). Post blood collection, animals were humanely sacrificed by CO2 asphyxiation as per latest guidelines issued by CPCSEA. All the vital organ (brain, kidney, liver, lungs, heart) and tumor were dissected out. Vital organs were fixed in 10% NBF and stored. Tumor tissue was dissected out, weighed and portion of tumor tissue was fixed in 10% NBF and another portion is snap frozen and stored at deep freezer (−80° C.).
# As shown in FIG. 34A-C, tumor fragments from the U-87MG cell line were implanted in the animals and once the tumor size reached ˜100 mm^3 animals were randomized into 3 experimental groups (G1, G2, and G3). G1: Vehicle, (G2) Reference Item Temozolomide, and (G3) APT20TTMG for a total of 22 days. (A) The tumor volume of the animals was measured twice/a week. (B) Animals were weighed throughout the experiment and the change in weight gain compared to pre-treatment weight was plotted. (C) After the euthanasia of the animals, the tumors were removed and weighed.
# SH-SY5Y cell line = experiment: Apoptosis/necrosis phase distribution; type: cell-based, Human; conditions: 0.25 μM; 24 hours
# MCF-7 cell line [3] = experiment: MTT cytotoxicity assay on human cancer cell panel (Example 2); type: cell-based; conditions: 24, 48, 72, 96 hours; 0.03-30 μM; 0.1% FBS
# Method: (§1) Cell lines were maintained in growth medium with 10% of Fetal Bovine Serum (FBS) until the time of the experiments. Cells were sub-cultured by trypsinization and splitting the cell suspension into fresh flasks and supplementing with fresh culture medium. To perform the assay, the cells were trypsinized, neutralized with complete medium (10% FBS), centrifuged, counted with assistance of a hemocytometer, and plated with the respective media with 10% FBS. Cell lines were plated at a density of 1×10^4 cells per well, other than the SH-SY5Y cell line which was plated at a density of 2.5×10^4. The preparation of the different experimental groups was done with 0.1% FBS (U87MG, MCF-7, SH-SY5Y and 786-O) and 1% FBS (PC-3). The untreated cells were used as negative control (medium only). After 24, 48, 72 and 96 hours of incubation, the effect of ASMO1 and controls on cytotoxicity of cells was determined by MTT assay.
# (§2) Briefly, plates were taken out and 20 μl of 5 mg/ml of MTT 3-(4,5-dimethythiazol-2-yl)-2,5-diphenyl tetrazolium bromide solution was added to all the wells. Cells were incubated for 3 h at 37° C. After this period, supernatant was aspirated and 100 μl of DMSO was added to each well to dissolve formazan crystals. The absorbance of each well was then read at 540 nm using Synergy HT microplate reader.
# (§3) Cells were plated and treated with 7 different concentrations (0.03, 0.1, 0.3, 1, 3, 10 and 30 μM) of APT20TTMG with medium (0.1% FBS). MTT assay was performed in 4 distinct times and graphs are represented as absorbance (540 nm). (A) 24 hours of incubation. (B) 48 hours of incubation. (C) 72 hours of incubation. (D) 96 hours of incubation.
# U-87MG cell line = experiment: as above; type: cell-based; conditions: 0.03-30 μM, 0.1% FBS
# Method: as §1, §2, §3
# MCF-7 cell line [4] = experiment: Mitochondrial membrane potential (MitoTracker Red); type: cell-based, Human; conditions: 0.25, 0.5, 1 μM; 24 hours; vs non-treated cells
# Method: The evaluation of ASMO1 APT20TTMG effect on the mitochondrial membrane potential of MCF-7 cell line was performed using MitoTracker Red dye. MitoTracker Red is a cationic fluorophore that accumulates in the mitochondria matrix, providing an indication of the viability and integrity of that organelle.
# For this, cells were cultured overnight in 24-well plates at a density of 1×10^5 cells/well, aiming cell adhesion. After that, cells were treated with three concentrations of APT20TTMG (0.25, 0.5, and 1 μM) for 24 hours. After treatment with the ASMO1, cells were collected using a 0.05% trypsin solution and washed twice with 2.0 mL of PBS buffer. Finally, samples were incubated with 500 μL of MitoTracker Red fluorescent dye solution at a concentration of 50 nM for 15 minutes in an incubator. Then the cells were again washed twice with 2 mL of PBS and, subsequently, analyzed in a flow cytometer (BD FACSCanto II, BD Biosciences) through the acquisition of 10.000 gated events/sample.
substance,measurement,setting,value
"APT20TTMG: engineered polynucleotide ASMO1, 24 nt, SEQ ID NO: 3 gtccactaacctttcaggccagcg; targeting moieties 5′-GTCCA-3′ and 5′-CG-3′, U1 snRNP recruiting moiety (GTCCACTAACCTTTCAGGCCAGCG; sugars from the 5' end m5 d14 m5, all phosphorothioate, methylation of C and T or U not given here)",cells in S phase of cell cycle,MCF-7 cell line [1],lower concentration of cells
same,body weight of animals,[2],gain weight throughout the experiment
same,necrotic cells,SH-SY5Y cell line,increase in necrotic cells
same,cytotoxic or cytostatic effect (MTT),MCF-7 cell line [3],does not exert a cytotoxic or cytostatic effect
same,"cell viability (MTT, absorbance 540 nm)",U-87MG cell line; 72 and 96 hours,like those of the vehicle group
same,"cell viability (MTT, absorbance 540 nm)","U-87MG cell line; 24 hours, vs negative control and vehicle",trend of reduction in cell viability
same,"cell viability (MTT, absorbance 540 nm)",U-87MG cell line; 48 hours,reduction in absorbance values
same,mitochondrial membrane potential,MCF-7 cell line [4],no change in mitochondrial membrane potential
